Patent US11066396B2 (priority 2016, dated 2021)

Columns and labels:
HDAC1 = HDAC1 (Homo sapiens (Human), UniProt Q13547); conditions: read-out: HDAC1 IC50
Description: Assay protocol: In brief, compounds were titrated in 100% DMSO via accoustic dispensing directly to the assay plate using the ECHO 550 [Labcyte]. HDAC enzymes at the concentrations indicated above were added in assay buffer to the assay plates containing the compounds using a Combi [Thermo Scientific]. The wells were mixed, and the plates were allowed to pre-incubate at ambient temperature for 3 h. After the 3 h, the appropriate substrate, at the concentrations indicated above, was added to the wells using a Combi. The wells were mixed, and the plates were allowed to incubate at ambient temperature for 1 h. After the 1 h, the appropriate Developer/stop solution was added to the wells using a Combi. The wells were mixed, and the plates were allowed to incubate at ambient temperature for 1 h. […] Data were analyzed using 4P curve fitting with Activity Base [IDBS] software.

HDAC5 = HDAC5 (Homo sapiens (Human), UniProt Q9UQL6); conditions: read-out: HDAC5 IC50
HDAC8 = HDAC8 (Homo sapiens (Human), UniProt Q9BY41); conditions: read-out: HDAC8 IC50
Chain of HDAC8 (Q9BY41 whole entry): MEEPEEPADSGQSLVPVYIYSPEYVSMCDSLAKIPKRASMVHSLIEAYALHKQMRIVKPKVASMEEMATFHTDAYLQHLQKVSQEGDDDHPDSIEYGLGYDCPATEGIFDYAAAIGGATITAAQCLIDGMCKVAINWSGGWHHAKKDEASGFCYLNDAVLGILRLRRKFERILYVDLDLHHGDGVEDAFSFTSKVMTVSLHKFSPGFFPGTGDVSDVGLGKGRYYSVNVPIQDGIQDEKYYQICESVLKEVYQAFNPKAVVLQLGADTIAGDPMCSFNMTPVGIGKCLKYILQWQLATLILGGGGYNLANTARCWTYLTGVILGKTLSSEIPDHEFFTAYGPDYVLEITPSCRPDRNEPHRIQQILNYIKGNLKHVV

Chain of HDAC1 (Q13547 whole entry): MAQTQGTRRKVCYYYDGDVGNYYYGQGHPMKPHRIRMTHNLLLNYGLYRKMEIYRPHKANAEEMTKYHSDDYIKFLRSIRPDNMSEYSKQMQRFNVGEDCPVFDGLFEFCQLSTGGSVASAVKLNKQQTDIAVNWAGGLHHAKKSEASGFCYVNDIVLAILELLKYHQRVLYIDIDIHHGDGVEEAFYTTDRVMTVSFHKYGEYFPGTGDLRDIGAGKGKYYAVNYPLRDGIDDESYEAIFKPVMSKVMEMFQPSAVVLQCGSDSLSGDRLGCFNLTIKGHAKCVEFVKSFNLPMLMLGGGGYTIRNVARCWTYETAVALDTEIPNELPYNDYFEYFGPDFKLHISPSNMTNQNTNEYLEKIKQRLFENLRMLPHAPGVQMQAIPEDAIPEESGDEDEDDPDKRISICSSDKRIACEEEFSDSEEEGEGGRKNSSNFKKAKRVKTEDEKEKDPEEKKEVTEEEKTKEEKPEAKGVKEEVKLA
Chain of HDAC5 (Q9UQL6 656-1122): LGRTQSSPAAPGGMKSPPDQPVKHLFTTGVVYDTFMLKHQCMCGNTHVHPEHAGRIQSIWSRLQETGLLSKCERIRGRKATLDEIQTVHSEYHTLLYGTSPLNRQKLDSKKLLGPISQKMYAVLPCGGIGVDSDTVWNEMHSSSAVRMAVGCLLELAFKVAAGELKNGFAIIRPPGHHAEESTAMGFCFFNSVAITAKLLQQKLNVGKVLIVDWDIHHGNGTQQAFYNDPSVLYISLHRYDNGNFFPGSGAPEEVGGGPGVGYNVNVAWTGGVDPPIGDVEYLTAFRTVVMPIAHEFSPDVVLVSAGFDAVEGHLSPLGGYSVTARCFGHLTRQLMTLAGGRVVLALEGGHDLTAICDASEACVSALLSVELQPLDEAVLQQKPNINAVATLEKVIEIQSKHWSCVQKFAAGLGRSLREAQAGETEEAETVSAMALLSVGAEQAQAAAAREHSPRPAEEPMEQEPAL

Structure (SMILES)	IC50 (HDAC1)	IC50 (HDAC5)	IC50 (HDAC8)
CC(C(=O)N(Cc1ccc(-c2noc(C(F)(F)F)n2)cn1)c1cccc(F)c1)c1ccn(C)n1 (racemic) [Example 58, N-(3-fluorophenyl)-2-(1-methyl-1H-pyrazol-3-yl)-N-((5-(5-(trifluoromethyl)-1,2,4-oxadiazol-3-yl)pyridin-2-yl)methyl)propanamide]	0.22 µM	0.73 µM	1.7 µM
O=C1CCC(c2ccccc2F)N1c1ccc(-c2noc(C(F)(F)F)n2)cc1F (racemic) [Example 118, 1-(2-fluoro-4-(5-(trifluoromethyl)-1,2,4-oxadiazol-3-yl)phenyl)-5-(2-fluorophenyl)pyrrolidin-2-one]	0.57 µM	0.13 µM	2.5 µM
O=C(C(Cc1ccc(-c2noc(C(F)(F)F)n2)cn1)c1cccc(C(F)(F)F)c1)N1CC[S+]([O-])CC1 (racemic) [Example 199, 4-(3-{5-[5-(trifluoromethyl)-1,2,4-oxadiazol-3-yl]pyridin-2-yl}-2-[3-(trifluoromethyl)phenyl]propanoyl)-llambda~4~,4-thiazinan-1-one]	4.1 µM	2.1 µM	9.9 µM
CC(Oc1cc(-c2noc(C(F)(F)F)n2)ccn1)c1nc2ccccc2[nH]1 (racemic) [Example 203, 2-[1-({4-[5-(trifluoromethyl)-1,2,4-oxadiazol-3-yl]pyridin-2-yl}oxy)ethyl]-1H-benzimidazole]	0.13 µM	0.13 µM	0.9 µM
CC(Oc1nccc(-c2noc(C(F)(F)F)n2)c1Cl)c1cccnc1 (racemic) [Example 256, 3-chloro-2-[1-(pyridin-3-yl)ethoxy]-4-[5-(trifluoromethyl)-1,2,4-oxadiazol-3-yl]pyridine]	3.3 µM	0.2 µM	2.3 µM
O=C1NCCCC1NCc1ccc(-c2noc(C(F)(F)F)n2)cn1 (racemic) [Example 458, 3-[({5-[5-(trifluoromethyl)-1,2,4-oxadiazol-3-yl]pyridin-2-yl}methyl)amino]piperidin-2-one]	8.3 µM	0.29 µM	2.8 µM
CC(C)C(=O)NC(Cc1ccc(-c2noc(C(F)(F)F)n2)cn1)c1cccc(C(F)(F)F)c1 (racemic) [Example 478, 2-methyl-N-(2-{5-[5-(trifluoromethyl)-1,2,4-oxadiazol-3-yl]pyridin-2-yl}-1-[3-(trifluoromethyl)phenyl]ethyl)propanamide]	0.68 µM	0.5 µM	45 µM
CCCC(=O)NC(Cc1ccc(-c2noc(C(F)(F)F)n2)cn1)c1cccc(C(F)(F)F)c1 (racemic) [Example 479, N-(2-{5-[5-(trifluoromethyl)-1,2,4-oxadiazol-3-yl]pyridin-2-yl}-1-[3-(trifluoromethyl)phenyl]ethyl)butanamide]	0.61 µM	0.44 µM	45 µM
COCC(=O)NC(Cc1ccc(-c2noc(C(F)(F)F)n2)cn1)c1cccc(C(F)(F)F)c1 (racemic) [Example 480, 2-methoxy-N-(2-{5-[5-(trifluoromethyl)-1,2,4-oxadiazol-3-yl]pyridin-2-yl}-1-[3-(trifluoromethyl)phenyl]ethyl)acetamide]	0.67 µM	0.62 µM	5.3 µM
CC1(C(=O)NC(Cc2ccc(-c3noc(C(F)(F)F)n3)cn2)c2cccc(C(F)(F)F)c2)COC1 (racemic) [Example 482, 3-methyl-N-(2-{5-[5-(trifluoromethyl)-1,2,4-oxadiazol-3-yl]pyridin-2-yl}-1-[3-(trifluoromethyl)phenyl]ethyl)oxetane-3-carboxamide]	0.79 µM	0.48 µM	8.5 µM
O=C(NC(Cc1ccc(-c2noc(C(F)(F)F)n2)cn1)c1cccc(C(F)(F)F)c1)C1CCOCC1 (racemic) [Example 483, N-(2-{5-[5-(trifluoromethyl)-1,2,4-oxadiazol-3-yl]pyridin-2-yl}-1-[3-(trifluoromethyl)phenyl]ethyl)oxane-4-carboxamide]	0.63 µM	0.51 µM	6.1 µM
O=C(NC(Cc1ccc(-c2noc(C(F)(F)F)n2)cn1)c1cccc(C(F)(F)F)c1)c1ncccn1 (racemic) [Example 484, N-(2-{5-[5-(trifluoromethyl)-1,2,4-oxadiazol-3-yl]pyridin-2-yl}-1-[3-(trifluoromethyl)phenyl]ethyl)pyrimidine-2-carboxamide]	0.6 µM	0.72 µM	2.5 µM
O=C(CN1CCOCC1)NC(Cc1ccc(-c2noc(C(F)(F)F)n2)cn1)c1cccc(C(F)(F)F)c1 (racemic) [Example 485, 2-(morpholin-4-yl)-N-(2-{5-[5-(trifluoromethyl)-1,2,4-oxadiazol-3-yl]pyridin-2-yl}-1-[3-(trifluoromethyl)phenyl]ethyl)acetamide]	1.1 µM	1.1 µM	11 µM
O=C(NC(Cc1ccc(-c2noc(C(F)(F)F)n2)cn1)c1cccc(C(F)(F)F)c1)c1cccnc1 (racemic) [Example 487, N-(2-{5-[5-(trifluoromethyl)-1,2,4-oxadiazol-3-yl]pyridin-2-yl}-1-[3-(trifluoromethyl)phenyl]ethyl)pyridine-3-carboxamide]	0.67 µM	0.38 µM	5.3 µM
O=C1COC[C@@H](c2ccccc2)N1c1ccc(-c2noc(C(F)(F)F)n2)c(F)c1 [Example 2, (R)-4-(3-Fluoro-4-(5-(trifluoromethyl)-1,2,4-oxadiazol-3-yl)phenyl)-5-phenylmorpholin-3-one]	0.48 µM	0.018 µM	4.6 µM
Cc1noc([C@@H]2CCC(=O)N2c2ccc(-c3noc(C(F)(F)F)n3)c(F)c2F)n1 [Example 12, (S)-1-(2,3-Difluoro-4-(5-(trifluoromethyl)-1,2,4-oxadiazol-3-yl)phenyl)-5-(3-methyl-1,2,4-oxadiazol-5-yl)pyrrolidin-2-one]	2 µM	0.011 µM	6 µM
O=C1OC[C@@H](c2ccccc2)N1c1cc(F)c(-c2noc(C(F)(F)F)n2)cc1F [Example 16, (R)-3-(2,5-Difluoro-4-(5-(trifluoromethyl)-1,2,4-oxadiazol-3-yl)phenyl)-4-phenyloxazolidin-2-one]	1 µM	0.019 µM	6 µM
O=C(C1CCS(=O)(=O)CC1)N(Cc1ccc(-c2noc(C(F)(F)F)n2)cc1)c1cccc(C(F)(F)F)c1 [Example 30, N-(4-(5-(Trifluoromethyl)-1,2,4-oxadiazol-3-yl)benzyl)-N-(3-(trifluoromethyl)phenyl)tetrahydro-2H-thiopyran-4-carboxamide 1,1-dioxide]	1.34 µM	1.2 µM	4.3 µM
O=C1CNCC(c2ccccc2)N1c1ccc(-c2noc(C(F)(F)F)n2)cc1 (centres unmarked) [Example 39, 6-phenyl-1-(4-(5-(trifluoromethyl)-1,2,4-oxadiazol-3-yl)phenyl)piperazin-2-one]	0.55 µM	0.025 µM	1.6 µM
O=C1CCCC(c2ccccc2)N1c1ccc(-c2noc(C(F)(F)F)n2)cc1 (centres unmarked) [Example 40, 6-phenyl-1-(4-(5-(trifluoromethyl)-1,2,4-oxadiazol-3-yl)phenyl)piperidin-2-one]	0.41 µM	0.034 µM	0.8 µM
O=C1CCC(c2ccccc2)N1c1cc(F)c(-c2noc(C(F)(F)F)n2)cc1F (centres unmarked) [Example 41, 1-(2,5-difluoro-4-(5-(trifluoromethyl)-1,2,4-oxadiazol-3-yl)phenyl)-5-phenylpyrrolidin-2-one]	0.61 µM	0.019 µM	6 µM
O=C1CCC(c2ccccc2)N1c1ccc(-c2noc(C(F)(F)F)n2)cc1F (centres unmarked) [Example 42, 1-(2-fluoro-4-(5-(trifluoromethyl)-1,2,4-oxadiazol-3-yl)phenyl)-5-phenylpyrrolidin-2-one]	0.53 µM	0.027 µM	1.4 µM
O=C1CCC(c2ccccc2)N1c1ccc(-c2noc(C(F)(F)F)n2)c(F)c1 (centres unmarked) [Example 43, 1-(3-fluoro-4-(5-(trifluoromethyl)-1,2,4-oxadiazol-3-yl)phenyl)-5-phenylpyrrolidin-2-one]	1.9 µM	0.074 µM	3.6 µM
O=C(N1CCOCC1)N(Cc1ccc(-c2noc(C(F)(F)F)n2)cn1)c1cccc(C(F)(F)F)c1 [Example 49, N-((5-(5-(trifluoromethyl)-1,2,4-oxadiazol-3-yl)pyridin-2-yl)methyl)-N-(3-(trifluoromethyl)phenyl)morpholine-4-carboxamide]	1 µM	1.9 µM	10 µM
FC(F)(F)c1nc(-c2ccc(COc3ccc4cnccc4n3)nc2)no1 [Example 311, 2-({5-[5-(trifluoromethyl)-1,2,4-oxadiazol-3-yl]pyridin-2-yl}methoxy)-1,6-naphthyridine]	0.88 µM	0.54 µM	
CC1(C)COCCN1C(=O)[C@@H]1CCC(=O)N1c1ccc(-c2noc(C(F)(F)F)n2)c(F)c1 [Example 344, (5S)-5-[(3,3-dimethylmorpholin-4-yl)carbonyl]-1-{3-fluoro-4-[5-(trifluoromethyl)-1,2,4-oxadiazol-3-yl]phenyl}pyrrolidin-2-one]	45 µM	1.9 µM	
CC1(C)C(=O)NCCN1C(=O)[C@@H]1CCC(=O)N1c1ccc(-c2noc(C(F)(F)F)n2)c(F)c1 [Example 345, 4-(1-{3-fluoro-4-[5-(trifluoromethyl)-1,2,4-oxadiazol-3-yl]phenyl}-5-oxo-L-prolyl)-3,3-dimethylpiperazin-2-one]	43 µM	1.5 µM	
CCS(=O)(=O)N(Cc1ccc(-c2noc(C(F)(F)F)n2)cc1)c1cccc(C(F)(F)F)c1 [Example 491, N-({4-[5-(trifluoromethyl)-1,2,4-oxadiazol-3-yl]phenyl}methyl)-N-[3-(trifluoromethyl)phenyl]ethanesulfonamide]	0.82 µM	0.14 µM	
